Laboratory results taken from patent publication US10537626B2, “HSP70-derived peptide, pharmaceutical composition for treating or preventing cancer using same, immunity inducer, and method for producing antigen presenting cell” (Cytlimic Inc., priority 2014, dated 2020).
Ends that are not written are not given here.

What was measured:
HLA-A*02:06 molecule = biological target: T1, HLA-A*02:06 molecule (Homo sapiens, UniProt P04439, D140Y/D185E/D98H/E176V/E277Q/F33Y/G131W/G231S/I119V/I121R/I166T/I218V/L300P/L318F/N151K/N90K/P208A/P217A/Q86G/Q94H/R138H/R169H/T345S); test: Binding experiment of peptide to HLA-A*02:06 molecule (RA2.6 cells, flow cytometry); conditions: for Binding Experiment Data To A*02:06: RA2.6 cells, negative values as printed (apparently log Kd)
T1 construct: expressed in transfected cells; host or cells: RA2.6 cells (mouse TAP-deficient RMAS transfected with HLA-A*02:06 cDNA, Kochi University)
Description: The binding capacity of each peptide to the HLA-A*02:06 molecule as the product of HLA-A*02:06 gene was measured using RA2.6 cells (a cell line newly prepared at Kochi University) in which cDNA of the HLA-A*02:06 gene was introduced into RMAS as a mouse TAP (transporter associated with antigen processing)-deficient cell line.
First, the RA2.6 cells were cultured overnight at 26° C. to accumulate the HLA-A*02:06 molecules unbound to the peptide on the cell surface. Any of peptide dilution series was added thereto for binding at 26° C. for 60 minutes.
Subsequently, the mixture was cultured at 35° C. for 4 hours, resulting in the denaturation of the empty HLA-A*02:06 molecule unbound to the peptide and the loss of its steric structure. A fluorescent labeled monoclonal antibody, BB7.2, specifically recognizing a peptide-bound HLA-A*02:06 molecule, was added thereto, which was then incubated on ice for 20 minutes to stain the cells.

HLA-A*02:01 molecule = HLA-A*02:01 molecule (Homo sapiens, UniProt P04439, D140Y/D185E/D98H/E176V/E277Q/G131W/G231S/I119V/I121R/I166T/I218V/L300P/L318F/N151K/N90K/P208A/P217A/Q86G/Q94H/R138H/R169H/T345S); test: Binding experiment of peptide to HLA-A*02:01 molecule (T2 cells, flow cytometry); conditions: for Binding Experiment Data To A*02:01: T2 cells, 37° C. 4 hours, negative values as printed (apparently log Kd)
Description: T2 cells and purified β2m were added to stepwise dilution series of a peptide whose binding capacity was to be measured, which was then incubated at 37° C. for 4 hours.
Thereafter, the amount of fluorescence per cell was measured using a flow cytometer, and the dissociation constant, Kd value, was calculated using a method as published in a paper by the present inventor (Udaka et al., Immunogenetics, 51, 816-828, 2000).

HLA-A*24:02 molecule = HLA-A*24:02 molecule (Homo sapiens, UniProt P04439, D101N/D140Y/D185E/E176V/E190D/F33S/G103R/G107R/I119L/I121M/I306V/K335N/L105A/L180Q/L300P/N151K/N90K/Q86E/Q94H/R106L/R138H/R89G/T104I/T345S/V100E/W191G/Y123F); test: Binding experiment of peptide to HLA-A*24:02 molecule (C1R-A24 cells, flow cytometry); conditions: for Binding Experiment Data To A*24:02: C1R-A24 cells, on ice 4 hours, negative values as printed (apparently log Kd)
Description: The binding capacity of each peptide to the HLA-A*24:02 molecule as the product of HLA-A*24:02 gene was measured using C1R-A24 cells expressing the HLA-A*24:02 molecule (the cells prepared by Prof. Masafumi Takeguchi, Kumamoto University were gifted by Assoc. Prof. Masaki Yasukawa, Ehime University with permission).
First, C1R-A24 cells were exposed to acidic conditions of pH 3.3 for 30 seconds to dissociate and remove endogenous peptides which were originally bound to the HLA-A*24:02 molecule and a light chain, β2m, which was commonly associated with HLA class I molecules. After neutralization, purified β2m was added to the C1R-A24 cells, which was then added to peptide dilution series. The mixtures were each then incubated on ice for 4 hours. The 3-molecule assembly (MHC-pep) consisting of the HLA-A*24:02 molecule, the peptide, and β2 m which had been reassociated during the incubation was stained with a fluorescent labeled monoclonal antibody, 17A12, recognizing the assembly.
Subsequently, the number of MHC-pep's per C1R-A24 cell (which is proportional to the fluorescent intensity of the above fluorescent antibody) was quantitatively measured using a fluorescent cell analyzer, FACScan (Becton, Dickinson and Company). The binding dissociation constant, Kd value, between the HLA-A*24:02 molecule and the peptide was calculated from the average fluorescent intensity per cell using a method as published in a paper (Udaka et al., Immunogenetics, 51, 816-828, 2000) by the present inventor.

[1] = system: CD8T cells from liver cancer patients; test: Immunity induction test of peptide (IFN-γ ELISPOT / ELISA, peptide-stimulated dendritic cells cocultured with CD8T cells); format: cell-based, human
Description: Monocytes were separated from the peripheral blood collected from a hepatocellular cancer patient according to a leukapheresis method. The separated monocytes were cultured for 6 days under addition of 800 U/ml GM-CSF and 500 U/ml IL-4. In addition, 300 U/ml TNF-α was added to the culture solution, which was then cultured for 4 days to induce mature dendritic cells. Subsequently, HSP70 mRNA was introduced thereinto by an electroporation method and thereby dendritic cells having presented an HSP70-derived antigen peptide were prepared.
Dendritic cells into which 1×10^7, 2×10^7, or 3×10^7 HSP70 mRNAs were introduced (HSP70-dendritic cells) were administered into the thigh of the hepatocellular cancer patient by subcutaneous injection (HSP70 dendritic cell therapy). The subcutaneous administration of the HSP70-dendritic cells prepared by the same method was repeated every 3 weeks. […]
Using CD8 Negative Selection Kit (from Miltenyi Biotec), CD8T cells were separated from the medium and counted. […]
A culture supernatant at day 7 after coculture of T cells with dendritic cells pulsed with each of the above peptides was diluted to the 4 levels of ×1, ×5, ×25, and ×125 to identify the dilution level falling within the limit of measurement using Human IFN-γ ELISA MAX Deluxe Set (from BioLegend Inc.). Thereafter, each sample was measured 3 times at the identified dilution level. […]

Sequence	Binding Experiment Data To A*02:06 (HLA-A*02:06 molecule)	Binding Experiment Data To A*02:01 (HLA-A*02:01 molecule)	Binding Experiment Data To A*24:02 (HLA-A*24:02 molecule)	other results
AMTKDNNLL [SEQ ID NO: 9]	−4.276	−5.56	−5.492	–
NQPGVLIQV [SEQ ID NO: 14]	−6.417	−5.91	–	–
VLVGGSTRI [SEQ ID NO: 5]	−5.07	−4.86	−6.173	–
MVLTKMKEI [SEQ ID NO: 6]	−5.533	−4.586	–	–
ITRARFEEL [SEQ ID NO: 10]	−5.58	−4.326	–	–
YAFNMKSAV [SEQ ID NO: 13]	−5.021	−5.091	–	–
AQIHDLVLV [SEQ ID NO: 12]	–	−6.148	–	–
LLLDVAPLS [SEQ ID NO: 8]	−6.171	−6.06	–	–
NLLGRFELS [SEQ ID NO: 11]	−5.175	−4.56	–	–
KLLQDFFNG [SEQ ID NO: 4]	−5.268	−4.959	–	–
FYPEEISSM [SEQ ID NO: 3]	–	–	−7.664	–
YGAAVQAAI [SEQ ID NO: 7]	−5.372	−4.904	−5.502	immunogenicity (in words) [1]: high immunogenicity; binding to HLA-A*02:06 molecule (in words) (HLA-A*02:06 molecule): strongly binds; binding to HLA-A*02:01 molecule (in words) (HLA-A*02:01 molecule): strongly binds; binding to HLA-A*24:02 molecule (in words) (HLA-A*24:02 molecule): strongly binds
SVTNAVITV [SEQ ID NO: 15]	−5.594	−4.762	−4.37	–
GVPQIEVTF [SEQ ID NO: 1]	−5.13	–	−6.451	–
